Tests used:
[1] = Phase 1 study: iron uptake (serum iron and TSAT) after oral ferric maltol; format: in vivo, children; details: 7.8, 16.6, 30 mg b.d.
Source text: Serum iron and TSAT provided measures of iron uptake.

[2] = cited from earlier work
[3] = parameters: method as in PMID 34029682; details: patients with CKD, over 16 weeks; ref [35]; cited from earlier work
[4] = Phase 1 study: safety and tolerability (adverse events, vital signs, ECG, laboratory tests, compliance) of oral ferric maltol; details: for Patients With an AE: Any AE: safety population
Source text: This phase 1, randomized, open-label, parallel-group pharmacokinetic study involved children seen as outpatients at 6 centers in the UK: Alder Hey Children’s NHS Foundation Trust; King’s College Hospital NHS Foundation Trust; University Hospitals of Leicester NHS Trust; Nottingham University Hospitals NHS Trust; Manchester University NHS Foundation Trust; and University College London Hospitals NHS Foundation Trust. […] Children aged 16 years or older and parents or guardians of children younger than 16 years provided written informed consent to participate before study initiation.
Children aged 10–17 years with confirmed iron deficiency at screening (defined as either ferritin <30 µg/L or ferritin <50 µg/L with transferrin saturation [TSAT] <20%) were eligible for inclusion in the study. Patients with or without anemia could be enrolled, provided hemoglobin was ≥8.5 g/dL at screening. Girls of childbearing potential had to agree to use adequate contraception during and until 4 weeks after the end of the study.
The study comprised a screening period followed by a 10-day randomized treatment period and a post-treatment safety follow-up. Children were randomized 1:1:1 (stratified by age [10–14 vs 15–17 years] and sex) to ferric maltol 7.8 mg, 16.6 mg, or 30 mg twice daily (b.d.) for 9 days and once in the morning of day 10. The first and last doses of ferric maltol were taken in the presence of the investigator. Children took each dose with a glass of water 1 hour before or 2 hours after a meal. Doses were based on daily elemental iron requirements for the broad range of body weights of participants likely to be enrolled, with the aim of finding a minimum effective dose in this age group. The 30 mg b.d. adult dosage was chosen as the highest exposure; dosages of 16.6 mg b.d. and 7.8 mg b.d. were chosen as approximately one-half and one-quarter of the adult dose, respectively, with the exact dose depending on the full fill of available capsule shell sizes.
The primary objectives were to assess iron uptake and ferric maltol pharmacokinetics. Serum iron and TSAT provided measures of iron uptake. In adults, dissociated maltol undergoes rapid glucuronidation and is cleared in urine as maltol glucuronide (36); therefore, in this study, plasma maltol glucuronide was measured to confirm the rate of clearance in children. The secondary objective was to assess the safety and tolerability of ferric maltol in terms of vital signs, AEs, concomitant medications, 12-lead electrocardiograms, and clinical laboratory blood tests.
Safety analyses were conducted in all patients who received at least 1 dose of the study medication and had at least 1 subsequent visit (the safety population). […] Clinically significant changes from baseline in vital signs, physical examination, and routine clinical laboratory abnormalities were also recorded.

Which results are given for `Cc1occc(=O)c1[O-].Cc1occc(=O)c1[O-].Cc1occc(=O)c1[O-].[Fe+3]` [Ferric maltol]?
Dose dependence of changes in serum iron concentrations [1]: not dose-dependent; Iron uptake (serum iron and TSAT) ([1]; days 1 and 10, ITT population): increased iron uptake; Hemoglobin concentrations versus placebo ([2]; patients with IBD, over 12 weeks, ref [19]): significantly increased hemoglobin concentrations compared with placebo; Incidence of gastrointestinal TEAEs ([2]; phase 3 trial in adults with IBD, ref [19],[20]): 38%; Hemoglobin and iron indices [3]: statistical and clinically significant increases in hemoglobin and iron indices; Patients With an AE: Any SAE ([4]; 7.8 mg b.d. (n = 12)): 0 (0.0) n (%); Patients With an AE: Any TEAE ([4]; 7.8 mg b.d. (n = 12)): 7 (58.3) n (%); Patients With an AE: TEAE leading to study discontinuation ([4]; 7.8 mg b.d. (n = 12)): 0 (0.0) n (%); Patients With an AE: TEAE related to study drug ([4]; 7.8 mg b.d. (n = 12)): 3 (25.0) n (%); Patients with a TEAE: Abdominal distension ([4]; 7.8 mg b.d. (n = 12)): 0 (0.0) n (%); Patients with a TEAE: Abdominal pain ([4]; 7.8 mg b.d. (n = 12)): 0 (0.0) n (%); Patients with a TEAE: Anal incontinence ([4]; 7.8 mg b.d. (n = 12)): 0 (0.0) n (%); Patients with a TEAE: Cellulitis ([4]; 7.8 mg b.d. (n = 12)): 1 (8.3) n (%); Patients with a TEAE: Constipation ([4]; 7.8 mg b.d. (n = 12)): 0 (0.0) n (%); Patients with a TEAE: Cough ([4]; 7.8 mg b.d. (n = 12)): 1 (8.3) n (%); Patients with a TEAE: Diarrhea ([4]; 7.8 mg b.d. (n = 12)): 2 (16.7) n (%); Patients with a TEAE: Dizziness ([4]; 7.8 mg b.d. (n = 12)): 0 (0.0) n (%); Patients with a TEAE: Dyspepsia ([4]; 7.8 mg b.d. (n = 12)): 0 (0.0) n (%); Patients with a TEAE: Dyspnea ([4]; 7.8 mg b.d. (n = 12)): 1 (8.3) n (%); Patients with a TEAE: Fatigue ([4]; 7.8 mg b.d. (n = 12)): 1 (8.3) n (%); Patients with a TEAE: Nausea ([4]; 7.8 mg b.d. (n = 12)): 1 (8.3) n (%); Patients with a TEAE: Nevus hemorrhage ([4]; 7.8 mg b.d. (n = 12)): 1 (8.3) n (%); Patients with a TEAE: Palpitations ([4]; 7.8 mg b.d. (n = 12)): 1 (8.3) n (%); Patients with a TEAE: Papule ([4]; 7.8 mg b.d. (n = 12)): 0 (0.0) n (%); Patients with a TEAE: Pyrexia ([4]; 7.8 mg b.d. (n = 12)): 0 (0.0) n (%); Patients with a TEAE: Skin abrasion ([4]; 7.8 mg b.d. (n = 12)): 0 (0.0) n (%); Patients with a TEAE: Sneezing ([4]; 7.8 mg b.d. (n = 12)): 1 (8.3) n (%); Patients with a TEAE: Tonsillitis ([4]; 7.8 mg b.d. (n = 12)): 0 (0.0) n (%); Patients with a TEAE: Vomiting ([4]; 7.8 mg b.d. (n = 12)): 1 (8.3) n (%); TEAEs by system organ class: Cardiac disorders ([4]; 7.8 mg b.d. (n = 12)): 1 (8.3) n (%); TEAEs by system organ class: Gastrointestinal disorders ([4]; 7.8 mg b.d. (n = 12)): 4 (33.3) n (%); TEAEs by system organ class: General disorders and administration-site conditions ([4]; 7.8 mg b.d. (n = 12)): 1 (8.3) n (%); TEAEs by system organ class: Injury, poisoning, and procedural complications ([4]; 7.8 mg b.d. (n = 12)): 0 (0.0) n (%); TEAEs by system organ class: Neoplasms benign, malignant, and unspecified ([4]; 7.8 mg b.d. (n = 12)): 1 (8.3) n (%); TEAEs by system organ class: Nervous system disorders ([4]; 7.8 mg b.d. (n = 12)): 1 (8.3) n (%); TEAEs by system organ class: Respiratory, thoracic, and mediastinal disorders ([4]; 7.8 mg b.d. (n = 12)): 3 (25.0) n (%); TEAEs by system organ class: Skin and subcutaneous-tissue disorders ([4]; 7.8 mg b.d. (n = 12)): 1 (8.3) n (%); Patients With an AE: Any AE ([4]; 7.8 mg b.d. (n = 12)): 7 (58.3) n (%); Patients With an AE: Any SAE ([4]; 16.6 mg b.d. (n = 13)): 0 (0.0) n (%); Patients With an AE: Any TEAE ([4]; 16.6 mg b.d. (n = 13)): 6 (46.2) n (%); Patients With an AE: TEAE leading to study discontinuation ([4]; 16.6 mg b.d. (n = 13)): 1 (7.7) n (%); Patients With an AE: TEAE related to study drug ([4]; 16.6 mg b.d. (n = 13)): 1 (7.7) n (%); Patients with a TEAE: Abdominal distension ([4]; 16.6 mg b.d. (n = 13)): 0 (0.0) n (%); Patients with a TEAE: Abdominal pain ([4]; 16.6 mg b.d. (n = 13)): 0 (0.0) n (%); Patients with a TEAE: Anal incontinence ([4]; 16.6 mg b.d. (n = 13)): 0 (0.0) n (%); Patients with a TEAE: Cellulitis ([4]; 16.6 mg b.d. (n = 13)): 0 (0.0) n (%); Patients with a TEAE: Constipation ([4]; 16.6 mg b.d. (n = 13)): 0 (0.0) n (%); Patients with a TEAE: Cough ([4]; 16.6 mg b.d. (n = 13)): 0 (0.0) n (%); Patients with a TEAE: Diarrhea ([4]; 16.6 mg b.d. (n = 13)): 0 (0.0) n (%); Patients with a TEAE: Dizziness ([4]; 16.6 mg b.d. (n = 13)): 1 (7.7) n (%); Patients with a TEAE: Dyspepsia ([4]; 16.6 mg b.d. (n = 13)): 0 (0.0) n (%); Patients with a TEAE: Dyspnea ([4]; 16.6 mg b.d. (n = 13)): 0 (0.0) n (%); Patients with a TEAE: Fatigue ([4]; 16.6 mg b.d. (n = 13)): 1 (7.7) n (%); Patients with a TEAE: Nausea ([4]; 16.6 mg b.d. (n = 13)): 0 (0.0) n (%); Patients with a TEAE: Nevus hemorrhage ([4]; 16.6 mg b.d. (n = 13)): 0 (0.0) n (%); Patients with a TEAE: Palpitations ([4]; 16.6 mg b.d. (n = 13)): 0 (0.0) n (%); Patients with a TEAE: Papule ([4]; 16.6 mg b.d. (n = 13)): 0 (0.0) n (%); Patients with a TEAE: Pyrexia ([4]; 16.6 mg b.d. (n = 13)): 0 (0.0) n (%); Patients with a TEAE: Skin abrasion ([4]; 16.6 mg b.d. (n = 13)): 1 (7.7) n (%); Patients with a TEAE: Sneezing ([4]; 16.6 mg b.d. (n = 13)): 0 (0.0) n (%); Patients with a TEAE: Tonsillitis ([4]; 16.6 mg b.d. (n = 13)): 1 (7.7) n (%); Patients with a TEAE: Vomiting ([4]; 16.6 mg b.d. (n = 13)): 1 (7.7) n (%); TEAEs by system organ class: Cardiac disorders ([4]; 16.6 mg b.d. (n = 13)): 0 (0.0) n (%); TEAEs by system organ class: Gastrointestinal disorders ([4]; 16.6 mg b.d. (n = 13)): 2 (15.4) n (%); TEAEs by system organ class: General disorders and administration-site conditions ([4]; 16.6 mg b.d. (n = 13)): 2 (15.4) n (%); TEAEs by system organ class: Injury, poisoning, and procedural complications ([4]; 16.6 mg b.d. (n = 13)): 1 (7.7) n (%); TEAEs by system organ class: Neoplasms benign, malignant, and unspecified ([4]; 16.6 mg b.d. (n = 13)): 0 (0.0) n (%); TEAEs by system organ class: Nervous system disorders ([4]; 16.6 mg b.d. (n = 13)): 3 (23.1) n (%); TEAEs by system organ class: Respiratory, thoracic, and mediastinal disorders ([4]; 16.6 mg b.d. (n = 13)): 0 (0.0) n (%); TEAEs by system organ class: Skin and subcutaneous-tissue disorders ([4]; 16.6 mg b.d. (n = 13)): 0 (0.0) n (%); Patients With an AE: Any AE ([4]; 16.6 mg b.d. (n = 13)): 7 (53.8) n (%); Children who discontinued the study early because of a TEAE ([4]; 16.6 mg group, moderate tonsillitis, not related to study drug): 1; Patients With an AE: Any SAE ([4]; 30 mg b.d. (n = 12)): 0 (0.0) n (%); Patients With an AE: Any TEAE ([4]; 30 mg b.d. (n = 12)): 7 (58.3) n (%); Patients With an AE: TEAE leading to study discontinuation ([4]; 30 mg b.d. (n = 12)): 0 (0.0) n (%); Patients With an AE: TEAE related to study drug ([4]; 30 mg b.d. (n = 12)): 5 (41.7) n (%); Patients with a TEAE: Abdominal distension ([4]; 30 mg b.d. (n = 12)): 1 (8.3) n (%); Patients with a TEAE: Abdominal pain ([4]; 30 mg b.d. (n = 12)): 1 (8.3) n (%); Patients with a TEAE: Anal incontinence ([4]; 30 mg b.d. (n = 12)): 1 (8.3) n (%); Patients with a TEAE: Cellulitis ([4]; 30 mg b.d. (n = 12)): 0 (0.0) n (%); Patients with a TEAE: Constipation ([4]; 30 mg b.d. (n = 12)): 1 (8.3) n (%); Patients with a TEAE: Cough ([4]; 30 mg b.d. (n = 12)): 1 (8.3) n (%); Patients with a TEAE: Diarrhea ([4]; 30 mg b.d. (n = 12)): 1 (8.3) n (%); Patients with a TEAE: Dizziness ([4]; 30 mg b.d. (n = 12)): 2 (16.7) n (%); Patients with a TEAE: Dyspepsia ([4]; 30 mg b.d. (n = 12)): 1 (8.3) n (%); Patients with a TEAE: Dyspnea ([4]; 30 mg b.d. (n = 12)): 0 (0.0) n (%); Patients with a TEAE: Fatigue ([4]; 30 mg b.d. (n = 12)): 2 (16.7) n (%); Patients with a TEAE: Nausea ([4]; 30 mg b.d. (n = 12)): 1 (8.3) n (%); Patients with a TEAE: Nevus hemorrhage ([4]; 30 mg b.d. (n = 12)): 0 (0.0) n (%); Patients with a TEAE: Palpitations ([4]; 30 mg b.d. (n = 12)): 0 (0.0) n (%)
